# Columns and labels:
# Test in all cases: MIC, broth micro dilution assay (NCCLS)
# Format in all cases: cell-based
# [1] = system: Streptococcus pneumoniae A28272; settings: 50% Mueller-Hinton medium and 50% Todd Hewitt medium, 35° C., 18 hours
# [2] = system: Staphylococcus aureus A15090; settings: Mueller-Hinton medium, 35° C., 18 hours
# In short: (§1)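 Broth microdilution in Mueller-Hinton medium, with a final inoculum of about 5×10^5 cfu/well. Plates incubated at 35 °C for 18 hours in ambient air. MIC = lowest drug concentration preventing visible growth.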
# [3] = system: Enterococcus faecalis A20688; settings: Mueller-Hinton medium, 35° C., 18 hours
# In short: as §1
MIC (μg/mL) Streptococcus pneumoniae A28272 [1] [µg/mL],MIC (μg/mL) Staphylococcus aureus A15090 [2] [µg/mL],MIC (μg/mL) Enterococcus faecalis A20688 [3] [µg/mL],Structure (SMILES)
8,128,>128,C=C(NC(=O)c1csc(-c2nc3c(cc2OCOP(=O)([O-])OC(C)(C)C)-c2nc(cs2)C(=O)NC(C(C)O)C(=O)NC(=C(C)OC)c2nc(cs2)C(=O)NC2c4nc(cs4)C(=O)NC(COC(=O)c4c5c6c(cccc6n4OCOP(=O)([O-])OC(C)(C)C)COC(=O)C(OC4CC(C)(O)C(N(C)C)C(C)O4)C2OC5)c2nc-3cs2)n1)C(N)=O.[Na+].[Na+] (stereo not drawn) [Example 81]
0.015,0.03,0.06,COC(C)=C1NC(=O)C(C(C)O)NC(=O)c2csc(n2)-c2cc(OCC(=O)OC(C)(C)C)c(-c3nc(C(N)=O)cs3)nc2-c2csc(n2)C2COC(=O)c3c4c5c(cccc5n3OCC(=O)OC(C)(C)C)COC(=O)C(OC3CC(C)(O)C(N(C)C)C(C)O3)C(OC4)C(NC(=O)c3csc1n3)c1nc(cs1)C(=O)N2 (stereo not drawn) [Example 82]
0.03,0.03,0.06,COC(C)=C1NC(=O)C(C(C)O)NC(=O)c2csc(n2)-c2cc(OC)c(-c3nc(C(N)=O)cs3)nc2-c2csc(n2)C2COC(=O)c3c4c5c(cccc5n3OC)COC(=O)C(OC3CC(C)(O)C(N(C)C)C(C)O3)C(OC4)C(NC(=O)c3csc1n3)c1nc(cs1)C(=O)N2 (stereo not drawn) [Example 83]
0.5,4.0,4.0,C=C(NC(=O)c1csc(-c2nc3c(cc2OP(=O)(O)OCCCl)-c2nc(cs2)C(=O)NC(C(C)O)C(=O)NC(=C(C)OC)c2nc(cs2)C(=O)NC2c4nc(cs4)C(=O)NC(COC(=O)c4c5c6c(cccc6n4OP(=O)(O)OCCCl)COC(=O)C(OC4CC(C)(O)C(N(C)C)C(C)O4)C2OC5)c2nc-3cs2)n1)C(N)=O (stereo not drawn) [Example 86]
0.06,1.0,2.0,C=C(NC(=O)c1csc(-c2nc3c(cc2OS(=O)(=O)c2cn(C)cn2)-c2nc(cs2)C(=O)NC(C(C)O)C(=O)NC(=C(C)OC)c2nc(cs2)C(=O)NC2c4nc(cs4)C(=O)NC(COC(=O)c4c5c6c(cccc6n4OCCCNS(=O)(=O)c4cn(C)cn4)COC(=O)C(OC4CC(C)(O)C(N(C)C)C(C)O4)C2OC5)c2nc-3cs2)n1)C(N)=O (stereo not drawn) [Example 87]

# — US7022667B2, “O-derivatized nocathiacin derivatives” (Bristol-Myers Squibb Company, priority 2002, dated 2006)
